Assay results from the OligoGym collection.
Oligonucleotides are given in HELM: sugar(base)linkage, 5' to 3'; d 2'-deoxyribose, r ribose, m 2'-O-methylribose, p phosphate. ss, as = sense and antisense strand

Molecular target: Cacnb1 (rat)
Assay: reporter assay of Huesken 2005
Conditions: siRNA
Note: test concentration or dose not given here.

“RNA1{r(U)p.r(U)p.r(A)p.r(G)p.r(C)p.r(C)p.r(C)p.r(A)p.r(G)p.r(C)p.r(U)p.r(C)p.r(G)p.r(A)p.r(G)p.r(A)p.r(A)p.r(A)p.r(G)p.d(T)p.d(T)}|RNA2{r(C)p.r(U)p.r(U)p.r(U)p.r(C)p.r(U)p.r(C)p.r(G)p.r(A)p.r(G)p.r(C)p.r(U)p.r(G)p.r(G)p.r(G)p.r(C)p.r(U)p.r(A)p.r(A)p.d(G)p.d(G)}$$$RNA1{StrandType:ss}|RNA2{StrandType:as}$” showed a normalised inhibition (eCFP-eYFP dual reporter) of 63.7%.
Substance “RNA1{r(U)p.r(U)p.r(U)p.r(C)p.r(A)p.r(U)p.r(C)p.r(C)p.r(C)p.r(C)p.r(A)p.r(G)p.r(C)p.r(C)p.r(C)p.r(U)p.r(G)p.r(U)p.r(C)p.d(T)p.d(T)}|RNA2{r(G)p.r(A)p.r(C)p.r(A)p.r(G)p.r(G)p.r(G)p.r(C)p.r(U)p.r(G)p.r(G)p.r(G)p.r(G)p.r(A)p.r(U)p.r(G)p.r(A)p.r(A)p.r(A)p.d(C)p.d(C)}$$$RNA1{StrandType:ss}|RNA2{StrandType:as}$” has a normalised inhibition (eCFP-eYFP dual reporter) of 16.4%.
